For orientation: Ki means the dissociation constant of the complex between target and ligand, obtained from inhibition or displacement. The low end stands for higher affinity, the high end for lower affinity.

SMILES strings stand for the structures. Counter-ions that a name gives are not always drawn. Like-named read-outs stand apart in the source and are kept apart here.

This note sets out measurements from patent US9657006B2, “Macrocyclic factor VIIa inhibitors” (BRISTOL-MYERS SQUIBB COMPANY, priority 2013, dated 2017).

For series [1] the following is noted: amide bond, 15-membered ring, HATU/NMM, DMF, 25.0 °C, 12.0 h.
A further series concerns the target T1, FVIIa (Homo sapiens, UniProt P08709).
T1 construct: with about 1% of the total amount in the proteolytically active form factor VIIa
Put plainly: FVIIa-Xase Ki (37° C.). The format is biochemical. The procedure:
The effectiveness of compounds of the present invention as inhibitors of the coagulation Factors, VIIa, IXa, Xa, XIa, XIIa, plasma kallikrein or thrombin, tissue kallikrein and activated protein C, can be determined using a relevant purified serine protease, respectively, and an appropriate synthetic substrate. The rate of hydrolysis of the chromogenic or fluorogenic substrate by the relevant serine protease was measured both in the absence and presence of compounds of the present invention. […] A decrease in the rate of absorbance or fluorescence change in the presence of inhibitor is indicative of enzyme inhibition. Such methods are known to one skilled in the art. The results of this assay are expressed as the inhibitory constant, Ki.
Reactions were initiated by the addition of human FX (range of concentrations). […] The residual FVIIa is sufficient, when combined with PCPS, calcium and TF to catalyze the conversion of FX to Xa, and was increased by the addition of 5 pM human FVIIa. FXa in turn hydrolyses S2765, which was monitored for 60 min at 405 nm. FXase activity was derived from the parabolic change in absorbance over time according to Equation 2: Absorbance=½ at 2+bt+c (Eq. 2) where a is proportional to the rate of FX activation≡product≡vs; b is proportional to the hydrolysis of S2765 in the absence of FXa; c is the absorbance at t=0. […]

For series [2] the following is noted: from CNCc1cc(NC(=O)COCc2cccc(C(Nc3ccc4c(N(C(=O)OC(C)(C)C)C(=O)OC(C)(C)C)ncc(F)c4c3)C(=O)O)c2)ccc1S(=O)(=O)C1CC1; amide bond; 15-membered ring; BOP/DMAP/DIPEA; DCM/DMF; 20.7 mM; 25.0 °C; 13.0 h; 2 steps.
For series [3] the following is noted: amide bond, 14-membered ring, BOP.

T1 sequence (P08709 213-466 limits assumed): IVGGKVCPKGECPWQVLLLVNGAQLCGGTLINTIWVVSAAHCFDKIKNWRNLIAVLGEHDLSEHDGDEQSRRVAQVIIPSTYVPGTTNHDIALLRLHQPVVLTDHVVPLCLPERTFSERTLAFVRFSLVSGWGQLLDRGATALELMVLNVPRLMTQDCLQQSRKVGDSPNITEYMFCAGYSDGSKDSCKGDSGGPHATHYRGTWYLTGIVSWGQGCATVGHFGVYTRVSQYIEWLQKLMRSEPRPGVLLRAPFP
T1 sequence (P08709 61-212 limits assumed): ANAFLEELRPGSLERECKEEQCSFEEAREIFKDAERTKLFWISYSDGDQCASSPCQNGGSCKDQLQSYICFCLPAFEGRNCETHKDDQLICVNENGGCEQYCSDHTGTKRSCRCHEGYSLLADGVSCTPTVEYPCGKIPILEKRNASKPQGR
T1 sequence (P13726 33-295 partner): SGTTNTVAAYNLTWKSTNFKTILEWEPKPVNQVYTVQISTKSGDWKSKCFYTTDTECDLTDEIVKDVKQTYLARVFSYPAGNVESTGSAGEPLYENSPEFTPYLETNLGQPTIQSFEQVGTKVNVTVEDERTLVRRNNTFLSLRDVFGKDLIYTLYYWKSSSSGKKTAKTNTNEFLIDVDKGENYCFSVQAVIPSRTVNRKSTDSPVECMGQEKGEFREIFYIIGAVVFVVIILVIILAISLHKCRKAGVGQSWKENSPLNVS

Take `CN1CCc2cccc(c2)C(Nc2ccc3c(N(C(=O)OC(C)(C)C)C(=O)OC(C)(C)C)nccc3c2)C(=O)N(C)Cc2cc(ccc2S(=O)(=O)C2CC2)NC1=O` (stereo not shown): in series [1] (from CNCc1cc(NC(=O)N(C)CCc2cccc(C(Nc3ccc4c(N(C(=O)OC(C)(C)C)C(=O)OC(C)(C)C)nccc4c3)C(=O)O)c2)ccc1S(=O)(=O)C1CC1), the ring closure, yield after HPLC came to 61%. On to `CN1CCc2cccc(c2)C(Nc2ccc3c(N)nccc3c2)C(=O)N(C)Cc2cc(ccc2S(=O)(=O)C2CC2)NC1=O` (stereo not shown) [Example 13, trifluoroacetic acid salt], for which affinity at FVIIa was put at a Ki of 6 nM.

`COc1ccc2cc1[C@H](C)CN(C)C(=O)Nc1ccc(S(=O)(=O)C3CC3)c(c1)CN(C)C(=O)C2Nc1ccc2c(N(C(=O)OC(C)(C)C)C(=O)OC(C)(C)C)nccc2c1` (stereo partly shown) had a ring closure, yield after HPLC in series [1] (from CNCc1cc(NC(=O)N(C)C[C@@H](C)c2cc(C(Nc3ccc4c(N(C(=O)OC(C)(C)C)C(=O)OC(C)(C)C)nccc4c3)C(=O)O)ccc2OC)ccc1S(=O)(=O)C1CC1, 1.11 mM) of 11%. Consider `CN1Cc2cc(ccc2S(=O)(=O)C2CC2)NC(=O)CCc2cc(ccc2O)[C@@H](Nc2ccc3c(N)ncc(F)c3c2)C1=O` (single isomer, unassigned) [Example 16], for which affinity on FVIIa was put at a Ki of 92 nM. In series [2], `CN1Cc2cc(ccc2S(=O)(=O)C2CC2)NC(=O)COCc2cccc(c2)C(Nc2ccc3c(N(C(=O)OC(C)(C)C)C(=O)OC(C)(C)C)ncc(F)c3c2)C1=O` (stereo not shown) showed a ring closure, crude yield of 48%.

In the case of `C[C@@H]1CC(=O)Nc2ccc(OC(F)F)c(c2)CN(C)C(=O)C(Nc2ccc(C#N)cc2)c2ccc(OCc3ccccc3)c1c2` (stereo partly shown), the ring closure, isolated yield in series [3] (from CNCc1cc(NC(=O)C[C@@H](C)c2cc(C(Nc3ccc(C#N)cc3)C(=O)O)ccc2OCc2ccccc2)ccc1OC(F)F) amounted to 64%.

In series [3] (from CNCc1cc(NC(=O)CCc2cc(C(Nc3ccc(C#N)cc3)C(=O)O)ccc2OCC(F)F)cc(F)c1OC(CF)CF), `CN1Cc2cc(cc(F)c2OC(CF)CF)NC(=O)CCc2cc(ccc2OCC(F)F)C(Nc2ccc(C#N)cc2)C1=O` (stereo not shown) registered a ring closure, isolated yield of 44%.
